Where a name gives a salt, the structure may show the parent alone.
Legend:
[1] = target: T1, human JAK1 (a.a. 837-1142) (Homo sapiens, UniProt P23458); test: In vitro JAK kinase assay (HTRF), JAK1; assay type: biochemical; details: JAK1, 90 μM ATP; read-out: EXAMPLE A JAK2-JAK1 HTRF-2 IC50
T1 construct: human JAK1 (a.a. 837-1142); His tag (N); made in house; host or cells: insect cells (baculovirus)
Procedure: (§1) Compounds herein were tested for inhibitory activity of JAK targets according to the following in vitro assay described in Park et al., Analytical Biochemistry 1999, 269, 94-104. The catalytic domains of human JAK1 (a.a. 837-1142), JAK2 (a.a. 828-1132) and JAK3 (a.a. 781-1124) with an N-terminal His tag were expressed using baculovirus in insect cells and purified. The catalytic activity of JAK1, JAK2 or JAK3 was assayed by measuring the phosphorylation of a biotinylated peptide. The phosphorylated peptide was detected by homogenous time resolved fluorescence (HTRF). IC50s of compounds were measured for each kinase in the reactions that contain the enzyme, ATP and 500 nM peptide in 50 mM Tris (pH 7.8) buffer with 100 mM NaCl, 5 mM DTT, and 0.1 mg/mL (0.01%) BSA. The ATP concentration in the reactions was 90 μM for JAK1, 30 μM for JAK2 and 3 μM for JAK3. Reactions were carried out at room temperature for 1 hr and then stopped with 20 μL 45 mM EDTA, 300 nM SA-APC, 6 nM Eu—Py20 in assay buffer (Perkin Elmer, Boston, Mass.). Binding to the Europium labeled antibody took place for 40 minutes and HTRF signal was measured on a Fusion plate reader (Perkin Elmer, Boston, Mass.).

[2] = system: JAK2_INA61 (cancer cell line dependent on cytokines and JAK/STAT signal transduction); test: Cellular assay: viability of cytokine-dependent cancer cell line (CellTiter-Glo); assay type: cell-based; details: 72 hours, read-out: EXAMPLE B JAK2_INA61 IC50
Procedure: One or more compounds herein were tested for inhibitory activity of JAK targets according to at least one of the following cellular assays.
Compounds were added to the cells in DMSO/media (final concentration 0.2% DMSO) and incubated for 72 hours at 37° C., 5% CO2. The effect of compound on cell viability was assessed using the CellTiter-Glo Luminescent Cell Viability Assay (Promega) followed by TopCount (Perkin Elmer, Boston, Mass.) quantitation. Potential off-target effects of compounds were measured in parallel using a non-JAK driven cell line with the same assay readout. […] All experiments were performed in duplicate.

TF1-BCRABL1 cells = TF1-BCRABL1 cells (Homo sapiens, UniProt P00519); test: ABL1 cell based assay: viability of ABL1-dependent cell line (CellTiter-Glo); details: 72 hours, cell viability; read-out: EXAMPLE F JAK2-TF1-BCRABL1 IC50
Procedure: One or more compounds herein were tested for inhibitory activity of ABL1 targets according to at least one of the following cellular assays.
Cancer cell lines dependent on ABL1 kinase activity for proliferation and/or survival were plated at 3000 cells per well (96 well plate format) in RPMI 1640, and 10% FBS. Compounds were added to the cells in DMSO/media (final concentration 0.2% DMSO) and incubated for 72 hours at 37° C., 5% CO2. The effect of compound on cell viability was assessed using the CellTiter-Glo Luminescent Cell Viability Assay (Promega) followed by TopCount (Perkin Elmer, Boston, Mass.) quantitation. ABL1-dependent cell lines can include those naturally dependent on ABL1 activity or those engineered to be dependent on ABL1 activity (e.g. BaF/3 cells). The latter can be generated using wild-type ABL1 or mutant ABL1 (such as T315I ABL1) so that the activity of compounds can be assessed against different variants of the ABL1 kinase. Potential off-target effects of compounds were measured in parallel using a non-ABL1 driven cell line with the same assay readout. […] All experiments were performed in duplicate or greater.

[3] = target: T2, human JAK2 (a.a. 828-1132) (Homo sapiens, UniProt O60674); test: In vitro JAK kinase assay (HTRF), JAK2; assay type: biochemical; details: JAK2, 30 μM ATP; read-out: EXAMPLE A HTS-JAK2 HTRF-2 IC50
T2 construct: JAK2 (a.a. 828-1132); His tag (N); made in house; host or cells: insect cells (baculovirus)
Procedure: as §1

[4] = target: T3, human JAK3 (a.a. 781-1124) (Homo sapiens, UniProt P52333); test: In vitro JAK kinase assay (HTRF), JAK3; assay type: biochemical; details: JAK3, 3 μM ATP; read-out: EXAMPLE A JAK2-JAK3 HTRF-2 IC50
T3 construct: JAK3 (a.a. 781-1124); His tag (N); made in house; host or cells: insect cells (baculovirus)
Procedure: as §1

T2 sequence (O60674 828-1132): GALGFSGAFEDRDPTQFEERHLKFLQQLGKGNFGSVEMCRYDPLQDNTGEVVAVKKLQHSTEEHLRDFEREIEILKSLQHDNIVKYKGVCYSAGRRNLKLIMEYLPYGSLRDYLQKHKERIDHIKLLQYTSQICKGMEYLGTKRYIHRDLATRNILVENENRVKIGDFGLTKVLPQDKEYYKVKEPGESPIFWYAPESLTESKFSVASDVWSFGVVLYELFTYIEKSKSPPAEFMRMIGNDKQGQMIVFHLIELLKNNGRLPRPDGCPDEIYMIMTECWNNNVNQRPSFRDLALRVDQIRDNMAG
T3 sequence (P52333 781-1124): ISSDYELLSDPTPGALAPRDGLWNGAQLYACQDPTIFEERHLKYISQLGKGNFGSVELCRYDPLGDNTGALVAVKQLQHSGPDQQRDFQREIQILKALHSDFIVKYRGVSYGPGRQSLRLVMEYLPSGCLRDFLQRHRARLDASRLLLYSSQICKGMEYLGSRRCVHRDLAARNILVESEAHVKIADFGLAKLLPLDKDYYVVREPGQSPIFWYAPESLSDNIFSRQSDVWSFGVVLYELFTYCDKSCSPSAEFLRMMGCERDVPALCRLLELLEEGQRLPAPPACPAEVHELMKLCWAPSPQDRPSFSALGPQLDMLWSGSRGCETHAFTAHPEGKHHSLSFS
Sequence of TF1-BCRABL1 cells (P00519 whole entry, change not shown): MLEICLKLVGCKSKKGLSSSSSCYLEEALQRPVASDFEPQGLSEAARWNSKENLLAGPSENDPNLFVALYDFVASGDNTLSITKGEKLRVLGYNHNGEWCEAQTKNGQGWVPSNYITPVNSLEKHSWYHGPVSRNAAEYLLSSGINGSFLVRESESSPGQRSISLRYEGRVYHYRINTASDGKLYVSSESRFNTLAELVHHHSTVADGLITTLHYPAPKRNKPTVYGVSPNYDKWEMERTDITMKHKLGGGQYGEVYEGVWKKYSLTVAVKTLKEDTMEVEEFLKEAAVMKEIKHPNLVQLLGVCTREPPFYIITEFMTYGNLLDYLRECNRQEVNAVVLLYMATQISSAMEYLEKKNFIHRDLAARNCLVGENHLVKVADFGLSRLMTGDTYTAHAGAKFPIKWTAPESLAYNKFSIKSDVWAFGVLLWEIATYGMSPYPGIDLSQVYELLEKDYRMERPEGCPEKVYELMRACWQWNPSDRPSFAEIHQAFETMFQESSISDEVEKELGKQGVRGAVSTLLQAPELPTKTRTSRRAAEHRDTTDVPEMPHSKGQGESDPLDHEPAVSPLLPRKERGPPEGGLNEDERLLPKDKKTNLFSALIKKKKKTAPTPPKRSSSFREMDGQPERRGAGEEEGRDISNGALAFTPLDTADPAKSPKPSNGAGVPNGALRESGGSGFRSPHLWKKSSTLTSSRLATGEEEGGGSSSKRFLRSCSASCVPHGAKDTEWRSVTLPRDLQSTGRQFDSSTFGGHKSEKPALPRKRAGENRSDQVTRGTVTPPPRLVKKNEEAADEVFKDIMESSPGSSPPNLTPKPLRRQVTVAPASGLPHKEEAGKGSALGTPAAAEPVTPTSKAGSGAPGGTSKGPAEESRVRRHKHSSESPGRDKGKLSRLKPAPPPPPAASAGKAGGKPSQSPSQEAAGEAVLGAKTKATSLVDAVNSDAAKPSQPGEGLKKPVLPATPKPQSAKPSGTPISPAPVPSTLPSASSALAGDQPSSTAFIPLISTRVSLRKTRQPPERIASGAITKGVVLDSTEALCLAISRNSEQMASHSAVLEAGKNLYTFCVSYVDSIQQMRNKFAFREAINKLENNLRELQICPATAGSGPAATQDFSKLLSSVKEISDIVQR
T1 sequence (P23458 849-1154): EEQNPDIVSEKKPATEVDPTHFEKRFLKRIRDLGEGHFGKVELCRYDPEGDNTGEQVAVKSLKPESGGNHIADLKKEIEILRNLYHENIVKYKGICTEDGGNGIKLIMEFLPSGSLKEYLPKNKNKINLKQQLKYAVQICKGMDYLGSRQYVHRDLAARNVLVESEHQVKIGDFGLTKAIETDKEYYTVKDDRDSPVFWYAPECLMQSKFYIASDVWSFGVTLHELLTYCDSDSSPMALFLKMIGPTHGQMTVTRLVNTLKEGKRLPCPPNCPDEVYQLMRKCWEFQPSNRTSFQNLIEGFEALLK

| IC50 [1] [nM] | IC50 [2] [nM] | IC50 [3] [nM] | IC50 [4] [nM] | Structure (SMILES) | GI50 (TF1-BCRABL1 cells) [nM] |
| --- | --- | --- | --- | --- | --- |
| ≤ 500 | ≤ 500 | ≤ 500 | ≤ 500 | Cc1ccc(NC(=O)c2cccc(C(F)(F)F)c2)cc1-c1ccc2c(c1)[nH]c1ncncc12 [Example 1, N-[4-Methyl-3-(9H-pyrimido[4,5-b]indol-7-yl)phenyl]-3-(trifluoromethyl)benzamide trifluoroacetate] | ≤ 500 |
| ≤ 500 | 500 to 1000 | ≤ 500 | ≤ 500 | Cc1cn(-c2cc(C(=O)Nc3ccc(C)c(-c4ccc5c(c4)[nH]c4ncncc45)c3)cc(C(F)(F)F)c2)cn1 [Example 2, 3-(4-Methyl-1H-imidazol-1-yl)-N-[4-methyl-3-(9H-pyrimido[4,5-b]indol-7-yl)-phenyl]-5-(trifluoromethyl)benzamide bis(trifluoroacetate)] | ≤ 500 |
| ≤ 500 | ≤ 500 | ≤ 500 | ≤ 500 | Cc1ccc(NC(=O)c2cccc(C(F)(F)F)c2F)cc1-c1ccc2c(c1)[nH]c1ncncc12 [Example 3, 2-fluoro-N-[4-methyl-3-(9H-pyrimido[4,5-b]indol-7-yl)-phenyl]-3-(trifluoromethyl)-benzamide] | ≤ 500 |
| ≤ 500 | 500 to 1000 | ≤ 500 | ≤ 500 | Cc1ccc(NC(=O)c2cccc(F)c2)cc1-c1ccc2c(c1)[nH]c1ncncc12 [Example 6, 3-fluoro-N-[4-methyl-3-(9H-pyrimido[4,5-b]indol-7-yl)-phenyl]benzamide] | ≤ 500 |
| ≤ 500 | > 1000 | > 1000 | ≤ 500 | Cc1ccc(NC(=O)c2cc(C(F)(F)F)ccc2C(F)(F)F)cc1-c1ccc2c(c1)[nH]c1ncncc12 [Example 7, N-[4-methyl-3-(9H-pyrimido[4,5-b]indol-7-yl)phenyl]-2,5-bis(trifluoromethyl)benzamide] | 500 to 1000 |
| ≤ 500 | > 1000 | 500 to 1000 | ≤ 500 | COc1cccc(C(=O)Nc2ccc(C)c(-c3ccc4c(c3)[nH]c3ncncc34)c2)c1 [Example 11, 3-methoxy-N-[4-methyl-3-(9H-pyrimido[4,5-b]indol-7-yl)-phenyl]benzamide] | ≤ 500 |
| ≤ 500 | > 1000 | > 1000 | ≤ 500 | Cc1ccc(NC(=O)c2ccccc2C(F)(F)F)cc1-c1ccc2c(c1)[nH]c1ncncc12 [Example 12, N-[4-methyl-3-(9H-pyrimido-[4,5-b]indol-7-yl)phenyl]-2-(trifluoromethyl)benzamide] | 500 to 1000 |
| ≤ 500 | ≤ 500 | ≤ 500 | ≤ 500 | O=C(Nc1ccc(F)c(-c2ccc3c(c2)[nH]c2ncncc23)c1)c1cccc(C(F)(F)F)c1 [Example 13, N-[4-fluoro-3-(9H-pyrimido-[4,5-b]indol-7-yl)phenyl]-3-(trifluoromethyl)benzamide] | ≤ 500 |
| ≤ 500 | > 1000 | ≤ 500 | > 1000 | O=C(Nc1cccc(-c2ccc3c(c2)[nH]c2ncncc23)c1)c1cccc(C(F)(F)F)c1 [Example 14, N-[3-(9H-pyrimido[4,5-b]-indol-7-yl)phenyl]-3-(trifluoro-methyl)benzamide] | 500 to 1000 |
| ≤ 500 | ≤ 500 | ≤ 500 | ≤ 500 | Cc1ccc(NC(=O)c2cccc(Cl)c2)cc1-c1ccc2c(c1)[nH]c1ncncc12 [Example 15, 3-chloro-N-[4-methyl-3-(9H-pyrimido[4,5-b]indol-7-yl)-phenyl]benzamide] | ≤ 500 |
| ≤ 500 | 500 to 1000 | ≤ 500 | ≤ 500 | Cc1ccc(NC(=O)c2cccc(S(F)(F)(F)(F)F)c2)cc1-c1ccc2c(c1)[nH]c1ncncc12 [Example 16, N-[4-methyl-3-(9H-pyrimido-[4,5-b]indol-7-yl)phenyl]-3-(pentafluoro-λ(6)-sulfanyl)-benzamide] | ≤ 500 |
| ≤ 500 | ≤ 500 | ≤ 500 | ≤ 500 | Cc1ccc(NC(=O)c2cc(F)cc(C(F)(F)F)c2)cc1-c1ccc2c(c1)[nH]c1ncncc12 [Example 19, 3-Fluoro-N-[4-methyl-3-(9H-pyrimido[4,5-b]indol-7-yl)phenyl]-5-(trifluoro-methyl)benzamide] | ≤ 500 |
| ≤ 500 | 500 to 1000 | ≤ 500 | ≤ 500 | Cc1ccc(NC(=O)c2cc(N3CCNCC3)cc(C(F)(F)F)c2)cc1-c1ccc2c(c1)[nH]c1ncncc12 [Example 28, N-[4-methyl-3-(9H-pyrimido-[4,5-b]indol-7-yl)phenyl]-3-piperazin-1-yl-5-(trifluoro-methyl)benzamide] | ≤ 500 |
| ≤ 500 | 500 to 1000 | ≤ 500 | ≤ 500 | Cc1ccc(NC(=O)c2cc(NCCN(C)C)cc(C(F)(F)F)c2)cc1-c1ccc2c(c1)[nH]c1ncncc12 [Example 38, 3-{[2-(dimethylamino)ethyl]-amino}-N-[4-methyl-3-(9H-pyrimido [4,5-b]indol-7-yl)-phenyl]-5-(trifluoromethyl) benzamide] | ≤ 500 |
| ≤ 500 | > 1000 | ≤ 500 | 500 to 1000 | Cc1ccc(NC(=O)c2ccc(F)c(C(F)(F)F)c2)cc1-c1ccc2[nH]c3ncncc3c2c1 [Example 42, 4-fluoro-N-[4-methyl-3-(9H-pyrimido[4,5-b]indol-6-yl)-phenyl]-3-(trifluoromethyl)-benzamide] | ≤ 500 |
| > 1000 | 500 to 1000 | ≤ 500 | ≤ 500 | Cc1ccc(NC(=O)c2cc(F)cc(C(F)(F)F)c2)cc1-c1ccc2[nH]c3ncncc3c2c1 [Example 43, 3-fluoro-N-[4-methyl-3-(9H-pyrimido[4,5-b]indol-6-yl)-phenyl]-5-(trifluoromethyl)-benzamide] | ≤ 500 |
| ≤ 500 |  | ≤ 500 | ≤ 500 | Cc1ncc(NC(=O)c2cc(NCCN(C)C)cc(C(F)(F)F)c2)cc1-c1ccc2c(c1)[nH]c1ncncc12 [Example 76, 3-[2-(dimethylamino)ethyl]amino-N-[6-methyl-5-(9H-pyrimido[4,5-b]indol-7-yl)pyridin-3-yl]-5-(trifluoromethyl)benzamide tris(trifluoroacetate)] | ≤ 500 |
| ≤ 500 |  | ≤ 500 | ≤ 500 | Cc1ncc(NC(=O)c2cc(NCCCN(C)C)cc(C(F)(F)F)c2)cc1-c1ccc2c(c1)[nH]c1ncncc12 [Example 77, 3-[3-(dimethylamino)propyl]amino-N-[6-methyl-5-(9H-pyrimido[4,5-b]indol-7-yl)pyridin-3-yl]-5-(trifluoromethyl)benzamide tris(trifluoroacetate)] | ≤ 500 |
